Measurements from US20220274947A1, “NOVEL HETEROARYL-TRIAZOLE COMPOUNDS AS PESTICIDES” (Bayer Aktiengesellschaft, priority 2019, published 2022).

Key:
Assay type in all cases: in vivo
[1] = system: Musca domestica strain WHO—N; experiment: Musca domestica test (MUSCDO surface treatment & contact assay); conditions: exposure 30 minutes, 24 hours after contact, read-out: efficacy (mortality); for mortality at 20 mg/m2: surface concentration 20 mg/m^2, glazed tile; for mortality at 4 mg/m2: surface concentration 4 mg/m^2, glazed tile
How it was run: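 Compound dissolved in acetone (2 mg/ml) with 2000 ppm rapeseed oil methyl ester and pipetted onto glazed tile; after acetone evaporation, adult flies exposed to dried surface for 30 minutes. Mortality (%) scored 24 hours after contact.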

[2] = system: Spodoptera frugiperda; experiment: Spodoptera frugiperda spray test; conditions: in Zea mays, 168 h, read-out: activity (mortality)
How it was run: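 Maize leaf sections were sprayed with compound formulated in acetone/DMF and diluted in water containing 1000 ppm emulsifier. Dried leaves were infested with fall armyworm larvae, and percent mortality was scored after 7 days.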

[3] = system: Nezara viridula; experiment: Nezara viridula spray test; conditions: in Hordeum vulgare, 96 h, barley plants, larvae, after 4 days; for mortality at 500 g/ha: application rate 500 g/ha; for mortality at 100 g/ha: application rate 100 g/ha
Protocol: Nezara viridula—Spray Test Solvent: 78.0 parts by weight of acetone • • 1.5 parts by weight of dimethylformamide Emulsifier: alkylarylpolyglycol ether
To produce a suitable preparation of active compound, 1 part by weight of active compound is mixed with the stated amount of solvent, and the concentrate is diluted with water, containing an emulsifier concentration of 1000 ppm, to the desired concentration. Further test concentrations are prepared by dilution with emulsifier containing water.
Barley plants (Hordeum vulgare) infested with larvae of the southern green stink bug (Nezara viridula) are sprayed with a test solution containing the desired concentration of the active ingredient.
After 4 days mortality in % is determined. 100% means all the stink bugs have been killed; 0% means none of the stink bugs have been killed.

[4] = system: Rhipicephalus microplus; experiment: Rhipicephalus (Boophilus) microplus injection test (BOOPMI Inj); conditions: 168 h, injection into adult engorged female ticks, egg deposition after 7 days, read-out: activity (efficacy: 100% means all eggs are infertile); for pest or weed control at 0.004 mg: application rate 4 μg/tick; for pest or weed control at 0.02 mg: application rate 20 μg/tick
How it was run: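 Five engorged adult female R. microplus ticks injected into the abdomen with 1 μL of compound diluted in DMSO, then kept in a climate chamber. Fertile egg deposition checked after 7 days; eggs without visible fertility held until hatching at about 42 days. Efficacy: 100% = all eggs infertile, 0% = all fertile.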

[5] = system: Diabrotica balteata; experiment: Diabrotica balteata spray test; conditions: 168 h, wheat seeds, larvae, after 7 days, read-out: activity (efficacy: 100% means all seedlings have grown up like in the untreated, uninfected control); for pest or weed control at 32 µg/disc, 100 g/ha: application rate 100 g/ha (=32 μg/well); for pest or weed control at 160 µg/disc, 500 g/ha: application rate 500 g/ha (=160 μg/well)
How it was run: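 Wheat seedlings, germinated 1 day on agar, were sprayed with compound in acetone/DMF diluted in water containing emulsifier, then infested with 10-20 Diabrotica balteata larvae. After 7 days efficacy in % was scored: 100% means seedlings grew like the untreated, uninfected control; 0% means none grew.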

[6] = system: Rhipicephalus microplus; experiment: Rhipicephalus (Boophilus) microplus in-vitro contact test, larval cattle tick, strain Parkhurst (BOOPMI Cont); conditions: application rate 5 μg/cm^2 (=500 g/ha), tick larvae, after 48 hours, read-out: activity (efficacy: 100% means all larvae are dead or moribund)
How it was run: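 Acetone solutions dried onto glass tube walls (900 ppm giving 5 μg/cm^2); 20-50 pyrethroid-resistant Parkhurst larvae added per tube and held 48 h at 27° C., 85% relative humidity. Efficacy scored by negative geotaxis as % dead or moribund larvae.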

[7] = system: Rhipicephalus sanguineus; experiment: Rhipicephalus sanguineus in-vitro contact test, adult brown dog ticks (RHIPSA Cont); conditions: 48 h, after 48 hours, read-out: activity (efficacy: 100% means all ticks are dead or moribund); for pest or weed control at 5 µg/cm2, 500 g/ha: application rate 5 μg/cm^2 (=500 g/ha); for pest or weed control at 1 µg/cm2, 100 g/ha: application rate 1 μg/cm^2 (=100 g/ha)
How it was run: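 Compound in acetone was coated onto the inner walls of glass tubes and dried by rotation before adult brown dog ticks were exposed. Efficacy was scored at 48 h. Ticks unable to climb away from a 45–50 °C heating plate within 5 min counted as dead or moribund.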

[8] = system: Ctenocephalides felis; experiment: Ctenocephalides felis oral test (CTECFE Oral); conditions: 48 h, read-out: activity (mortality)
How it was run: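 About 20 unfed adult cat fleas fed through parafilm on cattle blood containing compound (DMSO concentrate diluted in blood to the desired concentration). Blood held at 37 °C, fleas at room temperature. Mortality (%) scored after 2 days.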

[9] = system: Myzus persicae; experiment: Myzus persicae oral test; conditions: 120 h, read-out: activity (mortality)
How it was run: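 Percent mortality was recorded at day 5, where 0% means no aphids killed. Compound prepared from an acetone concentrate diluted in water and combined with IPL41 medium containing sugar was offered to mixed-stage green peach aphids, which sucked it through a parafilm seal.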

[10] = system: Ctenocephalides felis; experiment: Ctenocephalides felis in-vitro contact test, adult cat flea (CTECFE Cont); conditions: application rate 5 μg/cm^2 (=500 g/ha), adult cat fleas, after 48 hours, read-out: activity (efficacy: 100% means all fleas are dead or moribund)
Protocol: Ctenocephalides felis—In-Vitro Contact Tests Adult Cat Flea (CTECFE Cont)
9 mg compound is solved in 1 mL acetone and diluted with acetone to the desired concentration. 250 μL of the test solution is filled in 25 mL glass test tubes and homogeneously distributed on the inner walls by rotation and tilting on a shaking device (2 h at 30 rpm). With a compound concentration of 900 ppm, an inner surface of 44.7 cm^2 and a homogeneous distribution, a dose of 5 μg/cm^2 is achieved.
After the solvent has evaporated, each test tube is filled with 5-10 adult cat fleas (Ctenocephalides felis), closed with a perforated lid and incubated in a lying position at room temperature and relative humidity. After 48 hours efficacy is determined. The fleas are patted on the ground of the tubes and are incubated on a heating plate at 45-50° C. for at most 5 minutes. Immotile or uncoordinated moving fleas, which are not able to escape the heat by climbing upwards, are marked as dead or moribund.
An efficacy of 100% means all fleas are dead or moribund; 0% means no fleas are dead or moribund.

[11] = system: Aedes aegypti strain MONHEIM; experiment: Aedes aegypti test (AEDSAE surface treatment & contact assay); conditions: exposure 30 minutes, 24 hours after contact, read-out: efficacy (mortality); for mortality at 4 mg/m2: surface concentration 4 mg/m^2, glazed tile; for mortality at 20 mg/m2: surface concentration 20 mg/m^2, glazed tile
How it was run: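 Compound dissolved in acetone (2 mg/ml) with 2000 ppm rapeseed oil methyl ester, pipetted onto glazed tile and dried. Adult mosquitoes exposed on the surface for 30 min; percent mortality scored 24 h after contact.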

SMILES | mortality at 20 mg/m2 [1] [%] | mortality at 100 g/ha [2] [%] | mortality at 500 g/ha [2] [%] | mortality at 500 g/ha [3] [%] | pest or weed control at 0.004 mg [4] [%] | pest or weed control at 0.02 mg [4] [%] | pest or weed control at 32 µg/disc, 100 g/ha [5] [%] | pest or weed control at 160 µg/disc, 500 g/ha [5] [%] | pest or weed control at 5 µg/cm2 [6] [%] | pest or weed control at 5 µg/cm2, 500 g/ha [7] [%] | mortality at 100 ppm [8] [%] | mortality at 4 ppm [9] [%] | pest or weed control at 5 µg/cm2 [10] [%] | mortality at 4 mg/m2 [11] [%] | mortality at 100 g/ha [3] [%] | pest or weed control at 1 µg/cm2, 100 g/ha [7] [%] | mortality at 20 mg/m2 [11] [%] | mortality at 4 mg/m2 [1] [%] | mortality at 0.8 ppm [9] [%]
C[C@H](NC(=O)c1cc(C(F)(F)F)cc(C(F)(F)F)c1)c1nc(C2CC2)nn1-c1ccc(C#N)cn1 [I-4] | 80 to 100 | 100 | 100 | 90 | 100 | 100 | 100 | 100 | 100 | – | – | – | – | – | – | – | – | – | –
C[C@H](NC(=O)c1cc(Cl)cc(C(F)(F)F)c1)c1nc(C2CC2)nn1-c1ccc(C#N)cn1 [I-6, 3-chloro-N-{(1S)-1-[1-(5-cyanopyridin-2-yl)-3-cyclopropyl-1H-1,2,4-triazol-5-yl]ethyl}-5-(trifluoromethyl)benzamide] | 80 to 100 | 100 | 100 | 100 | 100 | 100 | 100 | 100 | 100 | – | – | – | – | – | – | – | – | – | –
COc1nc([C@H](C)NC(=O)c2cc(Cl)cc(Cl)c2)n(-c2ccc(C#N)cn2)n1 [I-15] | – | 100 | 100 | – | 100 | 100 | 100 | 100 | 100 | 80 | 100 | 100 | 80 | 80 to 100 | – | – | – | – | –
C[C@H](NC(=O)c1cc(Cl)cc(C(F)(F)F)c1)c1nc(C(C)(C)C)nn1-c1ccc(C#N)cn1 [I-38] | 80 to 100 | 83 | – | – | 100 | 100 | 100 | – | 100 | 80 | – | – | – | – | 100 | 100 | – | – | –
C[C@H](NC(=O)c1cc(Cl)cc(C(F)F)c1)c1nc(C2CC2)nn1-c1ccc(C#N)cn1 [I-42] | 80 to 100 | 100 | – | – | 100 | – | 100 | – | 100 | – | 100 | – | – | 80 to 100 | 100 | – | 80 to 100 | – | –
C[C@H](NC(=O)c1cc(Cl)cc(SC(F)F)c1)c1nc(C2CC2)nn1-c1ccc(C#N)cn1 [I-46] | 80 to 100 | 100 | – | – | 100 | – | 100 | – | 100 | – | 100 | – | – | – | 100 | – | – | – | –
C[C@H](NC(=O)c1cc(OC(F)F)cc(OC(F)F)c1)c1nc(C2CC2)nn1-c1ccc(C#N)cn1 [I-47] | 80 to 100 | 100 | – | – | 100 | – | 80 | – | 100 | 80 | 90 | – | – | 80 to 100 | 100 | 100 | – | 80 to 100 | –
C[C@H](NC(=O)c1cc(I)cc(C(F)(F)F)c1)c1ncnn1-c1ccc(C#N)cn1 [II-46] | 80 to 100 | 100 | 100 | 100 | 100 | 100 | 100 | 100 | 100 | 100 | 100 | – | – | 80 to 100 | – | 100 | 80 to 100 | 80 to 100 | –
C[C@H](NC(=O)c1cc(Cl)cc(C(F)(F)F)c1)c1ncnn1-c1ccc(C(=O)N(C)CC(F)(F)F)cn1 [II-69] | – | 83 | 100 | – | 100 | 100 | 80 | – | 100 | 100 | 100 | 100 | 90 | – | – | 100 | – | – | –
Cc1nc([C@H](C)NC(=O)c2cc(Cl)cc(C(F)(F)C(F)(F)F)c2)n(-c2ccc(C#N)cn2)n1 [II-75] | – | 100 | – | – | 100 | 100 | 100 | – | 100 | 100 | 100 | 100 | 90 | – | – | 100 | – | – | –
C[C@H](NC(=O)c1cc(C(F)(F)F)cc(C(F)(F)F)c1)c1ncnn1-c1cc(C(=O)N(C)C)ccn1 [II-86] | – | 100 | – | – | – | – | 100 | – | 100 | 80 | 100 | 100 | 100 | – | – | 100 | – | – | 100
C[C@H](NC(=O)c1cc(Br)cc(OC(F)(F)F)c1)c1ncnn1-c1cc(C#N)ccn1 [II-107] | – | 100 | – | – | 100 | – | 100 | – | 100 | 100 | 100 | 100 | 100 | – | – | 100 | – | – | –
